Patent US20240139206A1, “METHODS OF TREATMENT” (Kinoxis Therapeutics Pty Ltd, priority 2021, published 2024)
“Also recorded” adds a separate entry of the source.

What was measured:
Assay type in all cases: in vivo
[1] = tested on: APP/PS1 mice; test: Resident-Intruder (RI) test in Alzheimer's disease aggression mouse model; settings: for number (frequency) of attacks on the intruder mouse vs vehicle-treated APP/PS1 mice: KNX100 phosphate salt 2.5, 5 or 10 mg/kg freebase equivalent IP 15 min prior, risperidone 0.05 mg/kg IP 30 min prior, 5-minute session
Source text: Male APP/PS1 and WT mice (˜3 months of age) were used to assess the effect of KNX100 on aggression in a mouse model of Alzheimer's Disease.
APP/PS1 are double transgenic mice expressing a chimeric mouse/human amyloid precursor protein (APP) and presenilin (PS1).
Male C57BL/6J mice were purchased from Jackson Laboratory at 7-8 weeks of age and were used as the intruders in this study. The APP/PS1 mice and wild-type control mice were single-housed and C57BL/6J mice were group-housed (4 per cage) in a light-controlled environment (12/12 light/dark cycle) with access to food and water ad libitum. Tests were performed during the animal's light cycle.
The test compound, KNX100 was provided in its phosphate salt form. Doses of 2.5, 5, and 10 mg/kg freebase equivalent were dissolved in saline and injected IP, at a dose volume of 10 ml/kg, 15 minutes prior to the test.
Briefly, all mice were acclimated to red-light conditions for 60 minutes prior to testing. During the RI test, an unfamiliar intruder C57BL/6J mouse was placed directly into the home cage of the APP/PS1 resident mouse for 300 seconds. During the 5-minute session, the latency time to attack (attack was defined at a bite), and the total number (frequency) of attacks, were recorded manually by an experimenter blinded to the treatment groups. Immediately after testing, mice were separated, and the intruder mouse was placed back into his home cage. All mice that were wounded were treated according to IACUC guidelines.
One week after the pre-screen RI session, AD resident mice were administered vehicle, test compound, or risperidone. The RI test session was performed as described above following the appropriate pretreatment time.
Body weights were recorded at each time point as specified above. For aggression, the latency to attack and the total number of attacks were recorded.
Data were analyzed by analysis of variance (ANOVA) followed by post-hoc comparisons when appropriate. An effect was considered significant if p<0.05. Data are presented as the mean±standard error of the mean (SEM).

[2] = tested on: single housed hyper-aggressive male Swiss mice; test: Isolation-induced aggression model, two mouse social interaction test; settings: for increased time spent fighting in single housed mice: 10-minute test
Source text: This model has been chosen as it is considered to have excellent predictive validity toward human aggression and face validity for modelling offensive impulsive aggression in human aggression and it leads specifically to alterations in aggressive behaviour without confounding changes in other behaviours.
Eighty male Swiss mice (ARC, Perth, Australia) aged 6-7 weeks upon arrival were used for objectives (1) and (3) in this study, 30 mice of the same age and strain were used for objective (2). Subjects were housed four per cage in a temperature-controlled colony room (22° C.±1° C.) under standard laboratory conditions (12-hour light/dark cycle; light phase 0700-1900 hours) upon arrival. Mice were housed in standard IVC cages. Mice had ad libitum access to food and water in their home cages. All experiments were performed during the light phase. All experimental procedures were approved by University of Sydney Animal Ethics Committee.
After allowing 1 week for acclimatisation, n=64 mice were rendered hyper-aggressive by moving them into single housing, whereas n=16 animals were housed in groups of four. During this time, all mice were weighed at least once per week. One week prior to the commencement of testing mice were given habituation injections with saline (0.9%, 10 mL/kg) to reduce the potential confounding stress and anxiety from injections during testing.
Testing commenced from 6 weeks post-isolation. All experiments were conducted in testing arenas constructed from acrylic, with matte blue internal walls and floor (400 mm×400 mm×400 mm). The lighting at the centre of the arenas during testing was <10 lux. Prior to each test, one mouse in each pair was marked on its back with a non-toxic green marker, this allowed the automated behavioural tracking software to distinguish between the two mice (see below). On test days, weight and condition matched pairs of unfamiliar mice were administered their drug treatment(s) as described below and were then placed into the testing arena together for a 10 min test session (Examples 2 and 4) or a 5 minute test session (Example 3).
Drugs were administered either via intraperitoneal (i.p.) injection (injection volume 10 ml/kg) or administered orally (as indicated). The testing arenas were cleaned between sessions with ethanol (80%) and F10 disinfectant to eliminate residual odours.
KNX100 2HCL (Wuxi Apptech, Hong Kong, China) was dissolved in saline (0.9%).
A 5 group between-subjects design was utilised. 15 min prior to testing, group-housed mice received vehicle treatment (VEHg) and single housed mice received one of four different doses of KNX100 (0 aka VEHs, 2.5, 5 or 10 mg/kg). The sample size in each group was as follows: group housed (n=12); singled housed administered KNX100 dose 0 (n=14), […] (n=16), […] (n=18), and 10 (n=16) mg/kg, for i.p. administration.
For oral dosing, mice were similarly grouped, and 20 mg/kg KNX100 in saline or vehicle (saline) were administered by oral gavage with n=10 mice per group.
A 4 group between-subjects design was utilised.
The behaviours of interest were: (1) time (in seconds) spent fighting; (2) time (in seconds) spent huddling (defined as the mice being in close physical contact with each other while stationary); (3) time (in seconds) spent grooming themselves; and (4) distance travelled (in mm) by each mouse during the experimental session.
Experimental sessions were recorded with an overhead camera using CaptureStar (Version 1.00, CleverSys, Virginia, USA). The behaviours detailed above were automatically quantified from the videos using the behavioural tracking software TopScan, SocialScan and AggressionScan (CleverSys, Virginia, USA). Data were analysed using SPSS (Version 24.0, IBM, USA). Data were analysed with a one-way ANOVA and planned contrasts. Significance was set at p≤0.05.
This study used the same model and testing procedure for the two-mouse social interaction test as described in Example 1, and using a phosphate salt form of KNX100.

[3] = tested on: 6-OHDA lesion mice; test: Social interaction test in neonatal 6-OHDA lesion mouse model of ADHD; settings: KNX100 phosphate 1.845-7.38 mg/kg freebase equivalent i.p. or 3.75-15 mg/kg p.o.
Source text: Increased aggression is commonly observed in patients with ADHD. This increased aggression is also observed in several animal models of ADHD. One such model is the neonatal 6-hydroxydopamine (6-OHDA) lesion mouse model.
Briefly, intracerebroventricular infusion of 6-OHDA into brains of mice around postnatal day 5 results in a biological ADHD phenotype (e.g. dopamine depletion) and a behavioural phenotype (e.g. hyperactivity, impaired attention, impulsivity, aggression, and learning and memory deficits) in the majority of mice from postweaning onwards.
Five primary experimental conditions of interest are investigated: • Sham lesion mice treated with vehicle • 6-OHDA lesion mice treated with vehicle • 6-OHDA lesion mice treated with 1.845 mg/kg freebase equivalent KNX100 phosphate i.p. or 3.75 mg/kg p.o. • 6-OHDA lesion mice treated with 3.69 mg/kg freebase equivalent KNX100 phosphate i.p. or 7.5 mg/kg p.o. • 6-OHDA lesion mice treated with 7.38 mg/kg freebase equivalent KNX100 phosphate i.p. or 15 mg/kg p.o.
During adolescence, mice undergo a social interaction test to test the effects of KNX100 on increased aggression the ADHD model mice (6-OHDA lesion mice) compared to the control mice (sham lesion mice). […] The behaviours of the control or ADHD model mouse are assessed and include the total time spent fighting, the total number of fights, and the latency to the first fight.

[4] = Example 4: 0.1 mg/kg risperidone (30 min prior) or 10 mg/kg KNX100 dihydrochloride salt (15 min prior), 10 min test
[5] = Example 4: 0.1 mg/kg risperidone or 10 mg/kg KNX100 dihydrochloride salt
[6] = Example 4: 10 mg/kg KNX100 vs 0.1 mg/kg risperidone
[7] = KNX100 dihydrochloride salt 20 mg/kg p.o. 30 min prior, 5 min test
[8] = KNX100 dihydrochloride salt 2.5, 5 or 10 mg/kg i.p., single housed mice, linear trend for dose
[9] = acute KNX100 phosphate salt 15 mg/kg freebase equivalent p.o.
[10] = subchronic KNX100 phosphate salt 15 mg/kg freebase equivalent p.o. once daily 7 days

With `Cn1ncc2c1Nc1ccccc1NC2` [KNX100] the “latency to attack the intruder mouse vs vehicle-treated APP/PS1 mice” value ([1]; KNX100 phosphate salt 10 mg/kg freebase equivalent IP) was “showed a trend to increasing the latency to attack; also recorded: tended to increase the latency to attack intruders”, the “number (frequency) of attacks on the intruder mouse vs vehicle-treated APP/PS1 mice” value [1] was “decreased the number of attacks; also recorded: robustly reduced the number of aggressive attacks” and the “time spent fighting vs vehicle treated single housed mice” value [2, 4] was “spent less time fighting; also recorded: significantly inhibited fighting”. The “distance travelled vs vehicle treated single housed mice” value [2, 5] was “travelled significantly less distance; also recorded: significantly reduced distance travelled”, the “time spent fighting vs vehicle treated group housed mice” value [2, 5] was “spent less time fighting” and the “time spent huddling vs vehicle treated single housed mice” value [2, 5] was “spent significantly more time huddling; also recorded: increased huddling”. For the same molecule, the “distance travelled / locomotor activity, risperidone compared with KNX100” value ([2]; Example 4: 0.1 mg/kg risperidone vs 10 mg/kg KNX100) was “significantly less suppression of locomotor activity”, the “time spent grooming vs vehicle treated group housed mice” value ([2]; Example 4: 10 mg/kg KNX100 dihydrochloride salt) was “did not differ significantly from vehicle treated group housed mice in time spent grooming” and the “time spent fighting / inhibition of aggression, KNX100 compared with risperidone” value [2, 6] was “no significant difference in time spent fighting; also recorded: at least equivalent inhibition of aggression to risperidone”. The “time spent grooming, KNX100 compared with risperidone” value [2, 6] was “no significant different in time spent grooming”, the “time spent huddling, KNX100 compared with risperidone” value [2, 6] was “no significant difference in time spent huddling” and the “time spent fighting vs vehicle treated group housed mice” value [2, 7] was “did not differ significantly in time spent fighting compared to vehicle treated group housed mice; also recorded: did not differ significantly in time spent fighting relative to the group housed mice”. The “time spent fighting vs vehicle treated single housed mice” value [2, 7] was “spent significantly less time fighting than the single housed vehicle treated mice”, the “distance travelled relative to the group housed mice” value ([2]; KNX100 dihydrochloride salt 2.5, 5, 10 mg/kg i.p., vs vehicle treated group housed mice) was “none of the doses of KNX100 resulted in a significant difference in distance travelled” and the time spent fighting ([2]; KNX100 dihydrochloride salt 2.5, 5 or 10 mg/kg i.p. 15 min prior, single housed mice, linear trend for dose, 10 min test) was “dose dependently inhibited induced aggression; also recorded: dose dependently inhibited fighting”. The distance travelled [2, 8] was “dose dependently decreased distance travelled; also recorded: dose dependently inhibited”, the time spent huddling [2, 8] was “dose dependently increased time spent in this form of close physical contact; also recorded: dose dependently increased huddling” and the time spent self-grooming [2, 8] was “dose dependently increased time spent self-grooming”. The “efficacy of subchronic compared with acute KNX100 (duration spent fighting, number of fights, latency to first fight)” value ([2]; KNX100 phosphate salt 15 mg/kg freebase equivalent p.o.) was “no significant difference in efficacy; also recorded: maintains full efficacy at reducing aggressive behaviour after repeated dosing; also recorded: equally efficacious”, the “greater number of fights in single housed mice” value [2, 9] was “prevented” and the “reduced latency to first fight in single housed mice” value [2, 9] was “prevented”. For the same molecule, the “increased time spent fighting in single housed mice” value ([2]; acute KNX100 phosphate salt 15 mg/kg freebase equivalent p.o. on day 7, 30 min prior) was “prevented the increased time spent fighting”, the “greater number of fights in single housed mice” value [2, 10] was “prevented” and the “reduced latency to first fight in single housed mice” value [2, 10] was “prevented”. The “increased time spent fighting in single housed mice” value [2, 10] was “prevented the increased time spent fighting” and the “total time spent fighting, total number of fights, latency to the first fight” value [3] was “is shown to inhibit fighting incidents, duration of fighting, and latency to first attack”.

In the case of `Cc1nc2n(c(=O)c1CCN1CCC(c3noc4cc(F)ccc34)CC1)CCCC2` [risperidone, reference compound], the “number (frequency) of attacks on the intruder mouse vs vehicle-treated APP/PS1 mice” value [1] is reported as “decreased the number of attacks”, the “time spent fighting vs vehicle treated single housed mice” value [2, 4] is reported as “spent less time fighting; also recorded: significantly inhibited fighting” and the “time spent fighting vs vehicle treated group housed mice” value [2, 5] is reported as “spent less time fighting”. The “time spent huddling vs vehicle treated single housed mice” value [2, 5] was “spent significantly more time huddling; also recorded: increased huddling” and the “time spent grooming vs vehicle treated single housed mice” value ([2]; Example 4: 0.1 mg/kg risperidone, 0.1 mg/kg) was “spent significantly more time grooming; also recorded: significantly increased time spent grooming”.
